For the first experiment, the system named is P. falciparum (NF54 or 3D7 strain). The experiment in a line: P. falciparum proliferation assay in infected human blood cells (SYBR Green). It is filed as cell-based. The note with it: Plasmodium falciparum, Erythrocyte; infected human erythrocytes, 72 hours, SYBR Green fluorescence; read-out: EC50 (nM), inhibitory efficacy in delaying P. falciparum proliferation in infected human blood cells. On the procedure:
Assay for P. falciparum Proliferation in Infected Human Blood Cells
Compounds of the invention can be assayed to measure their capacity to inhibit proliferation of P. falciparum parasitemia in infected red blood cells. This parasite proliferation assay measures the increase in parasite DNA content using a DNA intercalating dye, SYBR Green® (INVITROGEN®) which has a high affinity for double stranded DNA.
NF54 or 3D7 P. falciparum strain is grown in complete culturing media until parasitemia reaches 3% to 8% with O+ human erythrocytes. […] 20 μl of screening media is dispensed into 384 well assay plates. 50 nl of compounds of the invention (in DMSO), including antimalarial controls (mefloquine, pyrimethamine and artemisinin), are then transferred into the assay plates, as well as DMSO alone to serve as a negative control for inhibition. Then 30 μl of a suspension of a NF54 or 3D7 P. falciparum infected erythrocytes in screening media is dispensed into the assay plates such that the final hematocrit is 2.5% with a final parasitemia of 0.3%. The plates are placed in a 37° C. incubator for 72 hours in a low oxygen environment containing 93% N2, 4% CO2, and 3% O2 gas mixture. 10 μl of lysis buffer (saponin, triton-X, EDTA) containing a 10× solution of SYBR Green I® in RPMI media is dispensed into the plates. The plates are lidded and kept at room temperature overnight for the lysis of the infected red blood cells. The fluorescence intensity is measured (excitation 425 nm, emission 530 nm) using the Envision™ system (Perkin Elmer). The percentage inhibition of 50%, EC50, is calculated for each compound.
As for `CN(C(=O)c1ccn2ncc(-c3ccc(C(=O)O)cc3)c2c1)c1ccc(C#N)cn1` [Example 101, 4-(5-((5-Cyanopyridin-2-yl)(methyl)carbamoyl)pyrazolo[1,5-a]pyridin-3-yl)benzoic acid], the EC50 was determined as 6160 nM.

Regarding `N#Cc1ccc(N(CCO)C(=O)c2ccn3ncc(-c4ccc(C(N)=O)cc4)c3c2)cc1` [Example 105, 3-(4-Carbamoylphenyl)-N-(4-cyanophenyl)-N-(2-hydroxyethyl)pyrazolo[1,5-a]pyridine-5-carboxamide], the EC50 was determined as 935 nM.

As to `CNC(=O)c1ccc(-c2cnn3ccc(C(=O)Nc4ccc(C#N)cn4)cc23)cc1` [Example 106, N-(5-Cyanopyridin-2-yl)-3-(4-(methylcarbamoyl)phenyl)pyrazolo[1,5-a]pyridine-5-carboxamide], the EC50 was 521 nM.

With `N#Cc1ccc(N(C(=O)c2ccn3ncc(-c4ccc(C(N)=O)cc4)c3c2)C2CC2)nc1` [Example 120, 3-(4-Carbamoylphenyl)-N-(5-cyanopyridin-2-yl)-N-cyclopropylpyrazolo[1,5-a]pyridine-5-carboxamide], the EC50 is 9 nM.

For the compound `CC(C)NC(=O)c1ccc(-c2cnn3ccc(C(=O)N(c4ccc(C#N)cn4)C4CC4)cc23)cc1` [Example 121, N-(5-Cyanopyridin-2-yl)-N-cyclopropyl-3-(4-(isopropylcarbamoyl)phenyl)pyrazolo[1,5-a]pyridine-5-carboxamide], the EC50 is 1160 nM.

Turning to `CNC(=O)c1ccc(-c2cnn3ccc(C(=O)N(C)c4ccc(OC)nc4)cc23)cc1` [Example 122, N-(6-Methoxypyridin-3-yl)-N-methyl-3-(4-(methylcarbamoyl)phenyl)pyrazolo[1,5-a]pyridine-5-carboxamide], the EC50 was greater than 10000 nM.

In the case of `N#Cc1ccc(N(C(=O)c2ccn3ncc(-c4ccc(C(=O)NC5CC5)cc4)c3c2)C2CC2)nc1` [Example 123, N-(5-Cyanopyridin-2-yl)-N-cyclopropyl-3-(4-(cyclopropylcarbamoyl)phenyl)pyrazolo[1,5a]pyridine-5-carboxamide], the EC50 is 393 nM.

On to `CNC(=O)c1ccc(-c2cnn3ccc(C(=O)N(c4ccc(Cl)cn4)C4CC4)cc23)cc1` [Example 124, N-(5-Chloropyridin-2-yl)-N-cyclopropyl-3-(4-(methylcarbamoyl)phenyl)pyrazolo[1,5-a]pyridine-5-carboxamide], for which the EC50 was determined as 19 nM.

Consider `CNC(=O)c1ccc(-c2cnn3ccc(C(=O)N(c4ccc(F)cn4)C4CC4)cc23)cc1` [Example 125, N-Cyclopropyl-N-(5-fluoropyridin-2-yl)-3-(4-(methylcarbamoyl)phenyl)pyrazolo[1,5a]pyridine-5-carboxamide], for which the EC50 is 80 nM.

The same experiment, now with this note: Plasmodium falciparum; read-out: EC50, P. falciparum Proliferation Assay.
In the case of `CN(C(=O)c1ccn2ncc(-c3cnc4[nH]ccc4c3)c2c1)c1ccc(C#N)cc1` [Example 40, N-(4-cyanophenyl)-N-methyl-3-(1H-pyrrolo[2,3-b]pyridin-5-yl)pyrazolo[1,5-a]pyridine-5-carboxamide], the EC50 was less than 5 nM.

With `CN(C(=O)c1ccn2ncc(-c3ccc(N)nc3)c2c1)c1ccc(C#N)cc1` [Example 41, 3-(6-aminopyridin-3-yl)-N-(4-cyanophenyl)-N-methylpyrazolo[1,5-a]pyridine-5-carboxamide], the EC50 was less than 5 nM.

On to `C[C@@H](N)C(=O)Nc1ccc(-c2cnn3ccc(C(=O)N(C)c4ccc(C#N)cc4)cc23)cc1` [Example 44, (R)-3-(4-(2-aminopropanamido)phenyl)-N-(4-cyanophenyl)-N-methylpyrazolo[1,5-a]pyridine-5-carboxamide], for which the EC50 is less than 5 nM.

As to `CN(C(=O)c1ccn2ncc(-c3cnc4[nH]ccc4c3)c2c1)c1ccc(C#N)cn1` [Example 53, N-(5-cyanopyridin-2-yl)-N-methyl-3-(1H-pyrrolo[2,3-b]pyridin-5-yl)pyrazolo[1,5-a]pyridine-5-carboxamide], the EC50 was less than 5 nM.

In the case of `CN(C(=O)c1ccn2ncc(-c3cnc(N)nc3)c2c1)c1ccc(C#N)cc1` [Example 83, 3-(2-aminopyrimidin-5-yl)-N-(4-cyanophenyl)-N-methylpyrazolo[1,5-a]pyridine-5-carboxamide], the EC50 is less than 5 nM.

Source of the values: US9556169B2, “Compounds and compositions for the treatment of parasitic diseases” (NOVARTIS AG, priority 2012, dated 2017).
